Data reported in patent US9701672B2, “Dihydropyridinone MGAT2 inhibitors for use in the treatment of metabolic disorders” (BRISTOL-MYERS SQUIBB COMPANY, priority 2014, dated 2017).

Molecular target: human MGAT-2 (Homo sapiens (Human), UniProt Q3SYC2)
Assay: MGAT LCMS assay (h-MGAT LCMS)
Format: biochemical
Description: The MGAT enzyme reactions were performed in Corning FALCON® 96-well polypropylene plates, in a total volume of 60 μL of 50 mM potassium phosphate buffer pH 7.4, containing a final concentration of 100 μM 2-oleoylglycerol, 15 μM oleoyl-coenzyme A and 0.0013 μg/μL human or mouse MGAT-2 or 0.0026 μg/μL rat recombinant MGAT-2 membranes expressed in Sf9 cells. Assay plates were run through a fully automated robotics system and shaken for 5 seconds every minute for a total 10 minutes. The reactions were then quenched with 120 μL of ice cold methanol containing 1 μg/mL 1,2-distearoyl-rac-glycerol as the internal standard. Plates were shaken for 2 minutes and spun down to remove protein precipitation. After the spin, samples were transferred to LC/MS compatible PCR plates. For LC/MS analysis, a ThermoFisher Surveyor pump, utilizing a Waters […]® C8, 50×2.1 mm column, was used for the chromatography of enzyme products. The buffer system consists of 0.1% formic acid in water with a mobile phase consisting 0.1% formic acid in methanol. The shallow gradient is 90-100% mobile phase in 0.2 min with a total run time of 2.3 min. The first 0.5 minutes of each injection was diverted to waste to eliminate the presence of phosphate buffer in the enzymatic reaction. The column was run at 0.6 mL/min and a temperature of 65° C. Mass spectrometry analysis of the samples was performed on a ThermoFisher Quantum Triple quad utilizing APCI (+) as the mode of ionization. Data was acquired in Single Ion Monitoring (SIM) mode analyzing Diolein=m/z 603.6 (PRODUCT) and 1,2-distearoyl-rac-glycerol (IS)=m/z 607.6. The ratio of Diolein to internal standard (Peak Area Ratio) is utilized to calculate IC50 values.
“NT” denotes “Not tested”.

[1] = human MGAT2 membranes expressed in Sf9 cells, 100 μM 2-oleoylglycerol, 15 μM oleoyl-coenzyme A

human MGAT-2, sequence (Q3SYC2 whole entry): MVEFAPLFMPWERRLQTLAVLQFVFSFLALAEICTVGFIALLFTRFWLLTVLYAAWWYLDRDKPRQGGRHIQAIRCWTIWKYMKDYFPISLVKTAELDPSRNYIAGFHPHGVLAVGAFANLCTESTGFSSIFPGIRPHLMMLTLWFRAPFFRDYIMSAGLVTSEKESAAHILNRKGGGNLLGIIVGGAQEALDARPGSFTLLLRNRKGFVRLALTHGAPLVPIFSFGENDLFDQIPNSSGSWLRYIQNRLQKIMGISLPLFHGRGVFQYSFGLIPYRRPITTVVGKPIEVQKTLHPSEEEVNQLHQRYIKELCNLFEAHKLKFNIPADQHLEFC

Compound	IC50 [1]	IC50 (human MGAT2)
O=C1N[C@@](c2ccc(OCCCC(F)(F)F)cc2)(C(F)(F)F)CC(c2ccc(C3CC3)s2)=C1c1nnn[nH]1 [Example 1, (S)-4-(5-Cyclopropylthiophen-2-yl)-3-(1H-tetrazol-5-yl)-6-(4-(4,4,4-trifluorobutoxy)phenyl)-6-(trifluoromethyl)-5,6-dihydropyridin-2(1H)-one]	2.5 nM	–
Cc1ccc(C2=C(c3nnn[nH]3)C(=O)N[C@@](c3ccc(OCCCC(F)(F)F)cc3)(C(F)(F)F)C2)s1 [Example 2]	41 nM	–
O=C1N[C@@](c2ccc(OCCCC(F)(F)F)cc2)(C(F)(F)F)CC(c2ccc(Cl)s2)=C1c1nnn[nH]1 [Example 3]	370 nM	–
CCc1ccc(C2=C(c3nnn[nH]3)C(=O)N[C@@](c3ccc(OCCCC(F)(F)F)cc3)(C(F)(F)F)C2)s1 [Example 9]	32 nM	–
Cc1csc(C2=C(c3nnn[nH]3)C(=O)N[C@@](c3ccc(OCCCC(F)(F)F)cc3)(C(F)(F)F)C2)c1 [Example 10]	–	2000 to 10000 nM
Cc1ccsc1C1=C(c2nnn[nH]2)C(=O)N[C@@](c2ccc(OCCCC(F)(F)F)cc2)(C(F)(F)F)C1 [Example 11]	873 nM	–
CN(C)Cc1ccc(C2=C(c3nnn[nH]3)C(=O)N[C@@](c3ccc(OCCCC(F)(F)F)cc3)(C(F)(F)F)C2)s1 [Example 12]	363 nM	–
Cc1cnc(C2=C(c3nnn[nH]3)C(=O)N[C@@](c3ccc(OCCCC(F)(F)F)cc3)(C(F)(F)F)C2)s1 [Example 13]	19.4 nM	–
CN(C)c1ccc(C2=C(c3nnn[nH]3)C(=O)N[C@@](c3ccc(OCCCC(F)(F)F)cc3)(C(F)(F)F)C2)cn1 [Example 14]	72.1 nM	–
O=C1N[C@@](c2ccc(OCCCCCC(F)(F)F)cc2F)(C(F)(F)F)CC(c2ccn(C3CC3)n2)=C1c1nnn[nH]1 [Example 16]	34 nM	–
O=C1N[C@@](c2ccc(OCCCC(F)(F)F)cc2)(C(F)(F)F)CC(c2cnn(C3CC3)c2)=C1c1nnn[nH]1 [Example 18]	24.5 nM	–
O=C1N[C@@](c2ccc(OCCCC(F)(F)F)cc2)(C(F)(F)F)CC(c2ccn(CC3CC3)n2)=C1c1nnn[nH]1 [Example 19]	31.8 nM	–
O=C1N[C@@](c2ccc(OCCCC(F)(F)F)cc2)(C(F)(F)F)CC(c2ccn(C3CCC3)n2)=C1c1nnn[nH]1 [Example 20]	74.7 nM	–
O=C1N[C@@](c2ccc(OCCCC(F)(F)F)cc2)(C(F)(F)F)CC(c2ccn(CC3CCC3)n2)=C1c1nnn[nH]1 [Example 21]	135 nM	–
O=C1N[C@@](c2ccc(CCCCC(F)(F)F)cc2)(C(F)(F)F)CC(c2ccn(C3CC3)n2)=C1c1nnn[nH]1 [Example 24]	22.9 nM	–
O=C1N[C@@](c2ccc(OCCCCCC(F)(F)F)cc2)(C(F)(F)F)CC(c2ccn(C3CC3)n2)=C1c1nnn[nH]1 [Example 25]	102 nM	–
CC(C)n1ccc(C2=C(c3nnn[nH]3)C(=O)N[C@@](c3ccc(OCCCCCC(F)(F)F)cc3)(C(F)(F)F)C2)n1 [Example 26]	43.7 nM	–
CC(C)(C)n1ccc(C2=C(c3nnn[nH]3)C(=O)N[C@@](c3ccc(OCCCCCC(F)(F)F)cc3)(C(F)(F)F)C2)n1 [Example 27]	185 nM	–
CCn1ccc(C2=C(c3nnn[nH]3)C(=O)N[C@@](c3ccc(OCCCCCC(F)(F)F)cc3)(C(F)(F)F)C2)n1 [Example 29]	52.1 nM	–
CC(C)Cn1ccc(C2=C(c3nnn[nH]3)C(=O)N[C@@](c3ccc(OCCCCCC(F)(F)F)cc3)(C(F)(F)F)C2)n1 [Example 31]	61.9 nM	–
CC(C)n1nc(C2=C(c3nnn[nH]3)C(=O)N[C@@](c3ccc(OCCCCCC(F)(F)F)cc3)(C(F)(F)F)C2)c2ccccc21 [Example 33]	950 nM	–
CC(C)n1cc(C2=C(c3nnn[nH]3)C(=O)N[C@@](c3ccc(OCCCCCC(F)(F)F)cc3)(C(F)(F)F)C2)c2ccccc21 [Example 34]	86.9 nM	–
Cc1cnc(C2=C(c3nnn[nH]3)C(=O)N[C@@](c3ccc(OCCCC(F)(F)F)cc3)(C(F)(F)F)C2)nc1 [Example 38]	34.3 nM	–
O=C1N[C@@](c2ccc(OCCCC(F)(F)F)cc2F)(C(F)(F)F)CC(c2ccn(C3CC3)n2)=C1c1nnn[nH]1 [Example 41]	73.6 nM	–
CCn1ccc(C2=C(c3nnn[nH]3)C(=O)N[C@@](c3ccc(OCCCC(F)(F)F)cc3F)(C(F)(F)F)C2)n1 [Example 43]	20.2 nM	–
CC(C)n1ccc(C2=C(c3nnn[nH]3)C(=O)N[C@@](c3ccc(CCCCC(F)(F)F)cc3F)(C(F)(F)F)C2)n1 [Example 46]	11.4 nM	–
CC(C)Cn1ccc(C2=C(c3nnn[nH]3)C(=O)N[C@@](c3ccc(OCCCC(F)(F)F)cc3F)(C(F)(F)F)C2)n1 [Example 51]	97.4 nM	–
O=C1N[C@@](c2ccc(OCCCC(F)(F)F)cc2F)(C(F)(F)F)CC(c2ccn(CC3CCC3)n2)=C1c1nnn[nH]1 [Example 53]	44 nM	–
O=C1N[C@@](c2ccc(OCCCCCC(F)(F)F)cc2)(C(F)(F)F)CC(c2nc3ccccc3s2)=C1c1nnn[nH]1 [Example 60]	137 nM	–
O=C1N[C@@](c2ccc(OCCCC(F)(F)F)cc2Cl)(C(F)(F)F)CC(c2ccn(C3CC3)n2)=C1c1nnn[nH]1 [Example 61]	120 nM	–

Results, then the compound that gave them:

IC50 [1]	IC50 (human MGAT2)	Compound
7.8 nM	–	CCCCCCC#C[C@]1(C(F)(F)F)CC(c2ccc(Cl)s2)=C(c2nnn[nH]2)C(=O)N1 [Example 5]
2.2 nM	–	CCCCCCC#C[C@]1(C(F)(F)F)CC(c2ccc(Br)s2)=C(c2nnn[nH]2)C(=O)N1 [Example 6]
9 nM	–	O=C1N[C@@](c2ccc(OCCCC(F)(F)F)cc2)(C(F)(F)F)CC(c2cc3ccccc3s2)=C1c1nnn[nH]1 [Example 7]
14.5 nM	–	O=C1N[C@@](c2ccc(OCCCCCC(F)(F)F)cc2F)(C(F)(F)F)CC(c2cnn(C3CC3)c2)=C1c1nnn[nH]1 [Example 15]
16.6 nM	–	O=C1N[C@@](c2ccc(OCCCC(F)(F)F)cc2)(C(F)(F)F)CC(c2ccn(C3CC3)n2)=C1c1nnn[nH]1 [Example 17]
1.2 nM	–	O=C1N[C@@](c2ccc(CCCCC(F)(F)F)cc2)(C(F)(F)F)CC(c2ccn(CC3CC3)n2)=C1c1nnn[nH]1 [Example 22]
2.1 nM	–	CC(C)n1ccc(C2=C(c3nnn[nH]3)C(=O)N[C@@](c3ccc(CCCCC(F)(F)F)cc3)(C(F)(F)F)C2)n1 [Example 23]
17.6 nM	–	CN(C)c1ccc(C2=C(c3nnn[nH]3)C(=O)N[C@@](c3ccc(OCCCC(F)(F)F)cc3)(C(F)(F)F)C2)nc1 [Example 28]
2.7 nM	–	O=C1N[C@@](c2ccc(OCCCCCC(F)(F)F)cc2)(C(F)(F)F)CC(c2ccn(CC3CC3)n2)=C1c1nnn[nH]1 [Example 30]
11.5 nM	–	CN(C)c1cnc(C2=C(c3nnn[nH]3)C(=O)N[C@@](c3ccc(OCCCC(F)(F)F)cc3)(C(F)(F)F)C2)s1 [Example 35]
16.6 nM	–	CC(C)n1ccc(C2=C(c3nnn[nH]3)C(=O)N[C@@](c3ccc(OCCCC(F)(F)F)cc3F)(C(F)(F)F)C2)n1 [Example 39]
6.7 nM	–	O=C1N[C@@](c2ccc(OCCCC(F)(F)F)cc2F)(C(F)(F)F)CC(c2ccn(C3CCC3)n2)=C1c1nnn[nH]1 [Example 40]
3 nM	–	O=C1N[C@@](c2ccc(CCCCC(F)(F)F)cc2F)(C(F)(F)F)CC(c2ccn(CC3CC3)n2)=C1c1nnn[nH]1 [Example 42]
15.2 nM	–	O=C1N[C@@](c2ccc(OCCCCC(F)(F)F)cc2)(C(F)(F)F)CC(c2ccc(C3CC3)s2)=C1c1nnn[nH]1 [Example 44]
3.5 nM	–	CN(C)c1cnc(C2=C(c3nnn[nH]3)C(=O)N[C@@](c3ccc(OCCCCC(F)(F)F)cc3)(C(F)(F)F)C2)s1 [Example 45]
2.7 nM	–	O=C1N[C@@](c2ccc(CCCCC(F)(F)F)cc2F)(C(F)(F)F)CC(c2ccn(C3CCC3)n2)=C1c1nnn[nH]1 [Example 47]
4.5 nM	–	CCn1ccc(C2=C(c3nnn[nH]3)C(=O)N[C@@](c3ccc(CCCCC(F)(F)F)cc3F)(C(F)(F)F)C2)n1 [Example 49]
9.4 nM	–	CC(C)Cn1ccc(C2=C(c3nnn[nH]3)C(=O)N[C@@](c3ccc(CCCCC(F)(F)F)cc3F)(C(F)(F)F)C2)n1 [Example 50]
3.2 nM	–	O=C1N[C@@](c2ccc(OCCCC(F)(F)F)cc2F)(C(F)(F)F)CC(c2ccn(CC3CC3)n2)=C1c1nnn[nH]1 [Example 52]
0.2 nM	–	O=C1N[C@@](c2ccc(OCCCC(F)(F)F)cc2Cl)(C(F)(F)F)CC(c2ccc(C3CC3)s2)=C1c1nnn[nH]1 [Example 56]
1.4 nM	–	COc1cc(OCCCC(F)(F)F)ccc1[C@]1(C(F)(F)F)CC(c2ccc(C3CC3)s2)=C(c2nnn[nH]2)C(=O)N1 [Example 57]
2.2 nM	–	CCc1ccc(C2=C(c3nnn[nH]3)C(=O)N[C@@](c3ccc(OCCCCCC(F)(F)F)cc3)(C(F)(F)F)C2)s1 [Example 58]
1.4 nM	–	O=C1N[C@@](c2ccc(OCCCC(F)(F)F)cc2F)(C(F)(F)F)CC(c2ncc(C3CC3)s2)=C1c1nnn[nH]1 [Example 59]
2.1 nM	–	CCc1cnc(C2=C(c3nnn[nH]3)C(=O)N[C@@](c3ccc(OCCCC(F)(F)F)cc3F)(C(F)(F)F)C2)s1 [Example 62]
0.7 nM	–	O=C1N[C@@](c2ccc(OCCCCCC(F)(F)F)cc2Cl)(C(F)(F)F)CC(c2ncc(C3CC3)s2)=C1c1nnn[nH]1 [Example 63]
